Test results reported in US11098061B2 (Celgene CAR LLC, priority 2013, dated 2021).

Legend:
MK2 = MK2 (Homo sapiens (Human), UniProt P49137); experiment: MK2 modification assessment by whole protein mass spectrometry; type: binding; conditions: intact MK2, 60 min, 10-fold excess of compound to protein
Method: Modification of MK2 is measured by whole protein MS analysis. […] 5 μL aliquots of the samples were diluted with 15 μL of 0.2% TFA prior to micro C4 ZipTipping directly onto the MALDI target using sinapinic acid as the desorption matrix (10 mg/ml in 0.1% TFA:Acetonitrile 50:50). Analysis was performed on a AB Sciex 4800 MALDI TOF/TOF retro fitted with an HM2 detector (CovalX). Percent modification of target MK2 (i.e., the percent of total MK2 modified by the test compound) for each compound was calculated by subtracting the centroid mass of the compound treated MK2 from the centroid mass of the control MK2 and dividing that value with the mass of the compound.

[1] = target: p38a activated, mitogen-activated protein kinase-activated protein kinase 2 (MAPKAP-K2 or MK-2) enzyme (Homo sapiens (Human), UniProt P49137); experiment: MK2 Omnia continuous-read kinase assay for compound potency; type: biochemical; conditions: [MK-2]=0.4 nM, [ATP]=1.0 mM, [ST3-Sox]=10 μM
Excerpt: The protocol below describes a continuous-read kinase assay optimized to measure potency of compounds against p38a activated, mitogen-activated protein kinase-activated protein kinase 2 (MAPKAP-K2 or MK-2) enzyme. The mechanics of the assay platform are best described by the vendor (Invitrogen, Carlsbad, Calif.) on their website at the following URL: invitrogen.com/search/global/searchAction. action?resultPage=1 &resultsPerPage=15 &query=om nia&personaFilterTerm=Support+%26+Troubleshoot
Kinase reactions were started with the addition of 40 μL of MK-2 enzyme and monitored every 71 seconds for 30-240 minutes at λex360/λem485 in a Synergy^2, Synergy^4 or Synergy H^4 plate reader from BioTek (Winooski, Vt.). […] Initial velocity (0 minutes to +30 minutes) from each reaction was estimated from the slope of a plot of relative fluorescence units vs time (minutes) and normalized to the no enzyme and no inhibitor control groups for % Inhibition. The resulting % Inhibition values were then plotted against inhibitor concentration to estimate IC50 from log[Inhibitor] vs Response, Variable Slope model in GraphPad Prism from GraphPad Software (San Diego, Calif.).
[MK-2]=0.4 nM, [ATP]=1.0 mM and [ST3-Sox]=10 μM (ATP ^appKM=8-10 μM)

Sequence of MK2 (P49137 whole entry): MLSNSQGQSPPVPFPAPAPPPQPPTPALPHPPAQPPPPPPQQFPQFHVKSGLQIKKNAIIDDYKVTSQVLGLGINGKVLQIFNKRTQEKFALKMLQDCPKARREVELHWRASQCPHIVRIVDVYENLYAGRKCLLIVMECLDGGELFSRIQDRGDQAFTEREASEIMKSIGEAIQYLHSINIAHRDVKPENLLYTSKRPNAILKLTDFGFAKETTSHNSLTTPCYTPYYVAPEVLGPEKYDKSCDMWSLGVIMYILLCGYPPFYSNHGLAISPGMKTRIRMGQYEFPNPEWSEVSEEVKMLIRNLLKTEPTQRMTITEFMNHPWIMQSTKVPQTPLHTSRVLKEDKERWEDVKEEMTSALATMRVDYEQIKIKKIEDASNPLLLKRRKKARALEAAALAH
Sequence of p38a activated, mitogen-activated protein kinase-activated protein kinase 2 (MAPKAP-K2 or MK-2) enzyme (P49137 whole entry): as above

Row | MK2 Mass Mod (MK2) | IC50 [1] [nM] | Compound
1 | E (mass modification of ≥70%) | 101 to 500 | C=CC(=O)N1CCc2ccc(NC(=O)c3ccc4cc5n(c4c3)CCNC5=O)cc21 [Compound V-9, N-(1-acryloylindolin-6-yl)-1-oxo-1,2,3,4-tetrahydropyrazino[1,2-a]indole-7-carboxamide]
2 | E (mass modification of ≥70%) | > 1000 | C=CC(=O)Nc1ccccc1NC(=O)c1ccc2cc3n(c2c1)C1(CCC1)CNC3=O [Compound V-14, N-(2-acrylamidophenyl)-1′-oxo-2′,3′-dihydro-1′H-spiro[cyclobutane-1,4′-pyrazino [1,2-a]indole]-7′-carboxamide]
3 | E (mass modification of ≥70%) | 501 to 999 | C=CC(=O)Nc1cccc2oc(-c3ccc4cc5n(c4c3)CCNC5=O)nc12 [Compound V-31, N-(2-(1-oxo-1,2,3,4-tetrahydropyrazino[1,2-a]indol-7-yl)benzo[d]oxazol-4-yl)acrylamide]
4 | G (mass modification ≤30%) | > 1000 | C=CC(=O)NCc1csc(NC(=O)c2ccc3cc4n(c3c2)C2(CCC2)CNC4=O)n1 [Compound V-43, N-(4-(acrylamidomethyl)thiazol-2-yl)-1′-oxo-2′,3′-dihydro-1′H-spiro[cyclobutane-1,4′-pyrazino[1,2-a]indole]-7′-carboxamide]
5 | G (mass modification ≤30%) | > 1000 | C=CC(=O)N1CCC[C@H](NC(=O)c2ccc3cc4n(c3c2)C2(CCC2)CNC4=O)C1 [Compound V-47, (S)—N-(1-acryloylpiperidin-3-yl)-1′-oxo-2′,3′-dihydro-1′H-spiro[cyclobutane-1,4′-pyrazino[1,2-a]indole]-7′-carboxamide]
6 | G (mass modification ≤30%) | > 1000 | C=CC(=O)N1Cc2cccc(NC(=O)c3ccc4cc5n(c4c3)C3(CCC3)CNC5=O)c2C1 [Compound V-48, N-(2-acryloylisoindolin-4-yl)-1′-oxo-2′,3′-dihydro-1′H-spiro[cyclobutane-1,4′-pyrazino [1,2-a]indole]-7′-carboxamide]
7 | G (mass modification ≤30%) | > 1000 | C=CC(=O)N[C@@H]1CCCN(C(=O)c2ccc3cc4n(c3c2)C2(CCC2)CNC4=O)C1 [Compound V-52, (R)—N-(1-(1′-oxo-2′,3′-dihydro-1′H-spiro[cyclobutane-1,4′-pyrazino [1,2-a]indol]-7′-ylcarbonyl)piperidin-3-yl)acrylamide]
8 | E (mass modification of ≥70%) | > 1000 | C=CC(=O)Nc1cc(NC(=O)c2ccc3cc4n(c3c2)C2(CCC2)CNC4=O)ccc1C [Compound V-53, N-(3-acrylamido-4-methylphenyl)-1′-oxo-2′,3′-dihydro-1′H-spiro[cyclobutane-1,4′-pyrazino[1,2-a]indole]-7′-carboxamide]
9 | G (mass modification ≤30%) | < 100 | C=CC(=O)Nc1ccc2[nH]c(-c3ccc4cc5n(c4c3)C3(CCC3)CNC5=O)nc2c1 [Compound V-59, N-(2-(1′-oxo-2′,3′-dihydro-1′H-spiro[cyclobutane-1,4′-pyrazino [1,2-a]indol]-7′-yl)-1H-benzo[d]imidazol-5-yl)acrylamide]
10 | G (mass modification ≤30%) | < 100 | C=CC(=O)Nc1ccc2oc(-c3ccc4cc5n(c4c3)C3(CCC3)CNC5=O)nc2c1 [Compound V-60, N-(2-(1′-oxo-2′,3′-dihydro-1′H-spiro[cyclobutane-1,4′-pyrazino [1,2-a]indol]-7′-yl)benzo[d]oxazol-5-yl)acrylamide]
11 | E (mass modification of ≥70%) | 101 to 500 | C=CC(=O)Nc1cc(-c2cc3c(cn2)CCc2c4c(n(C)c2-3)CC2(CC2)NC4=O)ccc1OCCOC [II-7, N-(2-(2-methoxyethoxy)-5-(11′-methyl-7′-oxo-5′,6′,7′,8′,10′,11′-hexahydrospiro[cyclopropane-1,9′-pyrido[3′,4′:4,5]pyrrolo[2,3-f]isoquinolin]-2′-yl)phenyl)acrylamide]
12 | E (mass modification of ≥70%) | < 100 | C=CC(=O)N1CCOc2ncc(-c3ncc4c(n3)-c3[nH]c5c(c3CC4)C(=O)NCC5)cc21 [II-17, 2-(1-acryloyl-2,3-dihydro-1H-pyrido[2,3-b][1,4]oxazin-7-yl)-8,9,10,11-tetrahydro-SH-pyrido[3′,4′:4,5]pyrrolo[3,2-h]quinazolin-7(6H)-one]
13 | E (mass modification of ≥70%) | < 100 | C=CC(=O)N1CCOc2ncc(-c3cc4c(cn3)CCc3c-4[nH]c4c3C(=O)NCC4)cc21 [II-18, 2-(1-acryloyl-2,3-dihydro-1H-pyrido[2,3-b][1,4]oxazin-7-yl)-8,9,10,11-tetrahydro-SH-pyrido[3′,4′:4,5]pyrrolo[2,3-f]isoquinolin-7(6H)-one]
14 | E (mass modification of ≥70%) | < 100 | C=CC(=O)Nc1cc(-c2nccc(-c3cc4c([nH]3)CCNC4=O)n2)cnc1OCCOC [II-21, N-(2-(2-methoxyethoxy)-5-(4-(4-oxo-4,5,6,7-tetrahydro-1H-pyrrolo[3,2-c]pyridin-2-yl)pyrimidin-2-yl)pyridin-3-yl)acrylamide]
15 | E (mass modification of ≥70%) | < 100 | C=CC(=O)Nc1cc(-c2nccc(-c3cc4c([nH]3)CCNC4=O)n2)ccc1OCCOC [II-22, N-(2-(2-methoxyethoxy)-5-(4-(4-oxo-4,5,6,7-tetrahydro-1H-pyrrolo[3,2-c]pyridin-2-yl)pyrimidin-2-yl)phenyl)acrylamide]
16 | E (mass modification of ≥70%) | < 100 | C=CC(=O)N1CCOc2ncc(-c3nccc(-c4cc5c([nH]4)CCNC5=O)n3)cc21 [II-23, 2-(2-(1-acryloyl-2,3-dihydro-1H-pyrido[2,3-b][1,4]oxazin-7-yl)pyrimidin-4-yl)-6,7-dihydro-1H-pyrrolo[3,2-c]pyridin-4(5H)-one]
17 | E (mass modification of ≥70%) | < 100 | C=CC(=O)N1CCOc2ccc(-c3ncc4c(n3)-c3[nH]c5c(c3CC4)C(=O)NCC5)cc21 [II-24, 2-(4-acryloyl-3,4-dihydro-2H-benzo[b][1,4]oxazin-6-yl)-8,9,10,11-tetrahydro-SH-pyrido[3′,4′:4,5]pyrrolo[3,2-h]i quinazolin-7(6H)-one]
18 | E (mass modification of ≥70%) | < 100 | C=CC(=O)N1CCOc2ccc(-c3nccc(-c4cc5c([nH]4)CCNC5=O)n3)cc21 [II-25, 2-(2-(4-acryloyl-3,4-dihydro-2H-benzo[b][1,4]oxazin-6-yl)pyrimidin-4-yl)-6,7-dihydro-1H-pyrrolo[3,2-c]pyridin-4(5H)-one]
19 | G (mass modification ≤30%) | > 1000 | CC(C)=CC(=O)COc1cc(NC(=O)c2ccc3sc4c(c3c2)NC[C@@H](C)NC4=O)ccc1F [III-2, (R)—N-(4-fluoro-3-((4-methyl-2-oxopent-3-en-1-yl)oxy)phenyl)-3-methyl-5-oxo-2,3,4,5-tetrahydro-1H-benzo[4,5]thieno[3,2-e][1,4]diazepine-9-carboxamide]
20 | F (mass modification of 31-69%) | > 1000 | C[C@@H]1CNc2c(sc3ccc(C(=O)Nc4ccc5c(c4)N(C(=O)/C=C/CN(C)C)CCO5)cc23)C(=O)N1 [III-9, (R,E)-N-(4-(4-(dimethylamino)but-2-enoyl)-3,4-dihydro-2H-benzo[b][1,4]oxazin-6-yl)-3-methyl-5-oxo-2,3,4,5-tetrahydro-1H-benzo[4,5]thieno[3,2-e][1,4]diazepine-9-carboxamide]
21 | G (mass modification ≤30%) | < 100 | C=CC(=O)NC1COCC1NC(=O)c1ccc2sc3c(c2c1)NC[C@@H](C)NC3=O (stereo partly drawn) [III-48]
22 | G (mass modification ≤30%) | < 100 | C=CC(=O)NC1CS(=O)(=O)CC1NC(=O)c1ccc2sc3c(c2c1)NC[C@@H](C)NC3=O (stereo partly drawn) [III-49]
23 | G (mass modification ≤30%) | < 100 | C=CC(=O)NC1CN(C)CC1NC(=O)c1ccc2sc3c(c2c1)NC[C@@H](C)NC3=O (stereo partly drawn) [III-50]
24 | G (mass modification ≤30%) | < 100 | C=CC(=O)N1CC(C)(C)Oc2ccc(-c3ccc4c(ccc5sc6c(c54)NC[C@@H](C)NC6=O)n3)cc21 [III-55, (R)-3-(4-acryloyl-2,2-dimethyl-3,4-dihydro-2H-benzo[b][1,4]oxazin-6-yl)-10-methyl-9,10,11,12-tetrahydro-8H-[1,4]diazepino[5′,6′:4,5]thieno[3,2-f]quinolin-8-one]
